Experimental data published in patent publication US20100311756A1, “METHODS FOR DELAYING THE PROGRESSION OF AT LEAST ONE OF CARDIAC HYPERTROPHY, CARDIAC REMODELING OR LEFT VENTRICULAR FUNCTION OR THE ONSET OF HEART FAILURE IN SUBJECTS IN NEED OF TREATMENT THEREOF” (TAKEDA PHARMACEUTICALS NORTH AMERICA, INC., priority 2009, published 2010).

Tested on: post-myocardial infarction rabbits
Test: Chronic xanthine oxidase inhibition following myocardial infarction (permanent coronary artery ligation) in rabbits
Format: in vivo
Conditions: for Heart Weight / Heart/Body Weight Ratio: Day 49; for EDV / EF (ejection fraction) / LVIDd / LVIDs / LVPWd / LVPWs / SF (shortening fraction): baseline (Day 0, pre-surgery, before dosing); for Ejection fraction (percent change from baseline) versus vehicle/control / Shortening fraction (percent change from baseline) versus vehicle/control: delayed treatment (from Day 22)
Excerpt: • Animals Male New Zealand white rabbits (1-2 kg; Clerco Research Farms, Cincinnati, Ohio, USA) were housed in separate cages in an environmentally controlled facility. The animals were subjected to circadian light-dark cycles, maintained on standard rabbit chow (2030C, Harlan Teklad, Madison, Wis., USA) and provided water ad libitum.
The procedures used in this study were reviewed and approved by the Institutional Animal Care and Use Committee (IACUC) of QTest Labs for compliance with regulations and current accepted practices. All applicable sections of the Final Rules of the Animal Welfare Act regulations (Section 9 CFR) and the Public Health Service Policy on Humane Care and Use of Laboratory Animals (OPRR, NIH, 1986) were followed. At the end of the study, all animals were humanely euthanized in accordance with accepted guidelines of the American Veterinary Medical Association (See, American Veterinary Medicine Association (AVMA), 2000 Report of the AVMA Panel on Euthanasia, The Journal of the American Veterinary Medical Association, 218(5):669-696 (2001)). • Drugs Febuxostat and allopurinol (Sigma-Aldrich, St. Louis, Mo., USA) were each formulated as a suspension in 0.5% methylcellulose (Sigma-Aldrich, St. Louis, Mo.) as the vehicle. […] Allopurinol was given orally at 60 mg/kg. […] The rabbits were anesthetized with an intramuscular injection of ketamine (35 mg/kg)/xylazine (5 mg/kg) and pre-surgery enrofloxacin (12 mg/kg). Isoflurane (1-2%) was given during the surgery as required to maintain a deep level of anesthesia and the animals were allowed to breathe 100% oxygen. A limb lead electrocardiogram (ECG) was obtained to monitor sinus rhythm, heart rate, and J-point deviation. The rabbit was placed in dorsal recumbency, and the sternum was exposed by blunt dissection and then incised with scissors. […] Myocardial ischemia was confirmed by regional cyanosis of the myocardial surface and ST-segment elevation on the ECG. The sternum was closed, leaving the pericardial sac as it was. The muscle layers, subcutaneous layer and skin were then closed. Ketofen (1 mg/kg) and buprenorphine (0.03 mg/kg/8 hour) were administered subcutaneously, and the rabbits were placed on a heating pad, covered with a towel, and observed continuously until awake. Post-operative medications given subcutaneously to the rabbits included enrofloxacin (12 mg/kg, b.i.d.), ketofen (0.03 mg/kg, b.i.d.), and buprenorphine ([…], t.i.d. to q.i.d.) for 1 to 3 days as needed. • Experimental Procedures Rabbits were surgically altered (Day 0) to produce MI-induced heart failure and assigned to one of four treatment groups: the vehicle/control group (n=8) received vehicle for 49 consecutive days (7 weeks), the febuxostat/early treatment group (n=8) received febuxostat (10 mg/kg) for 49 consecutive days (7 weeks), the febuxostat/delayed treatment group (n=7) received vehicle for 21 consecutive days (3 weeks) and then febuxostat (10 mg/kg) starting on Day 22 (3 weeks post-surgery) for 28 consecutive days (4 weeks), and the allopurinol/delayed treatment group (n=8) received vehicle for 21 consecutive days and then allopurinol (60 mg/kg) starting on Day 22 (3 weeks post-surgery) for 28 consecutive days (4 weeks). All treatments were started on Day 1 (i.e. the day after surgery) and administered by oral gavage (2 mL/kg). The animals were fasted overnight prior to each day of dosing.
On Day 0 (baseline, pre-surgery), and on Days 21 (end of week 3) and 49 (end of week 7) at approximately one hour after dosing, the rabbits were sling restrained for ECG acquisition.

[1] = delayed treatment: vehicle 21 days then oral FBS 10 mg/kg/day or AL 60 mg/kg/day for 28 days
[2] = early treatment: FBS 10 mg/kg/day oral for 49 days from 1 day after coronary occlusion
[3] = early treatment from one day after ligation, Day 21, still apparent on Day 49

Row | Compound | Heart Weight [1] [g] | Heart/Body Weight Ratio [1] [%] | EDV (delayed treatment group) [mL] | EF (ejection fraction) (delayed treatment group) [%] | LVIDd (delayed treatment group) [cm] | LVIDs (delayed treatment group) [cm] | LVPWd (delayed treatment group) [cm] | LVPWs (delayed treatment group) [cm] | SF (shortening fraction) (delayed treatment group) [%] | Ejection fraction (percent change from baseline) versus vehicle/control (Days 21 and 49) | Shortening fraction (percent change from baseline) versus vehicle/control (Days 21 and 49) | further results
1 | Oc1ncnc2[nH]ncc12 [allopurinol] | 6.59 ± 0.30 | 0.24 ± 0.01 | 2.21 ± 0.21 | 74 ± 1.9 | 1.29 ± 0.05 | 0.77 ± 0.03 | 0.31 ± 0.02 | 0.46 ± 0.02 | 40 ± 1.7 | not significantly different | not significantly different | 
2 | Cc1nc(-c2ccc(OCC(C)C)c(C#N)c2)sc1C(=O)O [febuxostat, 2-[3-cyano-4-(2-methylpropoxy)phenyl]-4-methylthiazole-5-carboxylic acid] | 6.65 ± 0.27 | 0.28 ± 0.01 | 1.42 ± 0.13 | 71 ± 1.7 | 1.11 ± 0.04 | 0.70 ± 0.02 | 0.32 ± 0.02 | 0.44 ± 0.02 | 36 ± 1.2 | not significantly different | not significantly different | Heart Weight [2]: small trend toward a lower; Heart/Body Weight Ratio [2]: 0.25 ± 0.01%; Heart Weight (early treatment: FBS 10 mg/kg/day oral for 49 days from 1 day after coronary occlusion, listed as FBS): 6.38 ± 0.19 g; EDV (early treatment group): 1.94 ± 0.25 mL; EF (ejection fraction) (early treatment group): 68 ± 1.8 %; LVIDd (early treatment group): 1.25 ± 0.04 cm; LVIDs (early treatment group): 0.82 ± 0.03 cm; LVPWd (early treatment group): 0.26 ± 0.02 cm; LVPWs (early treatment group): 0.49 ± 0.02 cm; SF (shortening fraction) (early treatment group): 34 ± 1.4 %; Reduction of ejection fraction (percent change from baseline) versus vehicle/control [3]: significantly lessened; Reduction of shortening fraction (percent change from baseline) versus vehicle/control [3]: significantly lessened; Increase in LVIDd versus vehicle/control (early treatment, Day 21): less of an increase; Increase in end diastolic volume versus vehicle/control (early treatment, Day 21): less of an increase; Increase in LVIDs versus vehicle/control (early treatment, Day 21, reaching statistical significance): less of an increase; Left ventricular posterior wall dimension during diastole, change from baseline (early treatment, Days 21 and 49): no reduction
